Measurements from patent US8987314B2, “Amide, urea or sulfone amide linked benzothiazole inhibitors of endothelial lipase” (Bristol-Myers Squibb Company, priority 2012, dated 2015).

Legend:
[1] = biological target: Endothelial lipase (EL) (Homo sapiens (Human), UniProt Q9Y5X9); test: EL assay: endothelial lipase activity with fluorescent substrate A10070 in DMPG vesicles; type: biochemical
Method in brief: (§1)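 Compounds were preincubated with enzyme for 30 min at 37° C before FRET-substrate vesicles (A10070 in DMPG, 0.11 mole fraction) were added. Reaction rates were obtained from the 300–900 sec slope of fluorescence at 490/530 nm.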

[2] = biological target: hepatic lipase (HL) (Homo sapiens (Human), UniProt P11150); test: HL assay: hepatic lipase activity with fluorescent substrate A10070 in DMPG vesicles; type: biochemical
Method in brief: as §1

Chain of Endothelial lipase (EL) (Q9Y5X9 21-500): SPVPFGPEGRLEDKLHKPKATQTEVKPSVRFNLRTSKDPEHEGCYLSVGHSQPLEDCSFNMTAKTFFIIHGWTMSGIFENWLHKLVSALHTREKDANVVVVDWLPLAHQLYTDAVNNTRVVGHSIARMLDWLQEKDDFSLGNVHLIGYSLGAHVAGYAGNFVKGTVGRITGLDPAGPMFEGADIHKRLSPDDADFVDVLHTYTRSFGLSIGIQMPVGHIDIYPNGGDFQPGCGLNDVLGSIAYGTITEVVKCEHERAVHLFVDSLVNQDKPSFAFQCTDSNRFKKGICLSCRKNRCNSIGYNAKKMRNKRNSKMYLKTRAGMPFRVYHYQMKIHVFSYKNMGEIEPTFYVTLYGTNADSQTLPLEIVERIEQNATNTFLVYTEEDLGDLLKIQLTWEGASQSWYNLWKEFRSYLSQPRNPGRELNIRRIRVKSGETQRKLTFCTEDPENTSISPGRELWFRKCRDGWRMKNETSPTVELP
Chain of hepatic lipase (HL) (P11150 23-499, species assumed): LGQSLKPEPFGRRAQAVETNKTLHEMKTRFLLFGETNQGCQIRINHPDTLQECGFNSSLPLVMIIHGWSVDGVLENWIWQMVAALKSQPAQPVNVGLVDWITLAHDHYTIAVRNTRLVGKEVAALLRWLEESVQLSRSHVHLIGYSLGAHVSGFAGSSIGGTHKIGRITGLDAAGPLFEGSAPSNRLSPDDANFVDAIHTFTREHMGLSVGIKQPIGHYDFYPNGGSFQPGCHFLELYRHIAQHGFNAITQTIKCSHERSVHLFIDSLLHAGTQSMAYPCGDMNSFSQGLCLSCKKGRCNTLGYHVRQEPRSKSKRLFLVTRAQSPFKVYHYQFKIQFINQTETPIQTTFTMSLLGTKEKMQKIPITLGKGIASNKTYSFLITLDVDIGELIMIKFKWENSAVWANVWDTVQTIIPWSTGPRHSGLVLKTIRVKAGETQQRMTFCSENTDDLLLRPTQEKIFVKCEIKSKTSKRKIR

SMILES | IC50 [1] | IC50 [2]
CS(=O)(=O)C(C(=O)NCCS(N)(=O)=O)c1nc2ccc(-c3ccc(C(N)=O)cc3)cc2s1 (stereo not shown) [Example B214, 4-(2-{methanesulfonyl[(2-sul-famoylethyl)carbamoyl]meth-yl}-1,3-benzothiazol-6-yl)benzamide] | 1.6 nM | 160 nM
CS(=O)(=O)C(C(=O)NCCS(N)(=O)=O)c1nc2ccc(-c3ccc(C(=O)NC4CC4)cc3)cc2s1 (stereo not shown) [Example B216, N-cyclopropyl-4-(2-{methanesulfonyl[(2-sulfa-moylethyl)carbamoyl]meth-yl}-1,3-benzothiazol-6-yl)benzamide] | 2.1 nM | 155 nM
CS(=O)(=O)C(C(=O)NCCS(N)(=O)=O)c1nc2ccc(-c3cnn(CCC(F)(F)F)c3)cc2s1 (stereo not shown) [Example B221, 2-methanesulfonyl-N-(2-sulfamoylethyl)-2-{6-[1-(3,3,3-trifluoropropyl)-1H-pyrazol-4-yl]-1,3-benzothiazol-2-yl}acetamide] | 78.1 nM | 308 nM
CS(=O)(=O)C(C(=O)NCCS(N)(=O)=O)c1nc2ccc(-c3ccc(-c4nnc(N)s4)cc3)cc2s1 (stereo not shown) [Example B223, 2-{6-[4-(5-amino-1,3,4-thiadiazol-2-yl)phenyl]-1,3-benzothiazol-2-yl}-2-methanesulfonyl-N-(2-sulfamoylethyl)acetamide] | 1.2 nM | 7.7 nM
CS(=O)(=O)C(C(=O)NCCS(N)(=O)=O)c1nc2ccc(-c3ccc(-c4ncco4)cc3)cc2s1 (stereo not shown) [Example B224, 2-methanesulfonyl-2-{6-[4-(1,3-oxazol-2-yl)phen-yl]-1,3-benzothiazol-2-yl}-N-(2-sulfamoylethyl)a-cetamide] | 8.4 nM | 10 nM
Cc1nnc(-c2ccc(-c3ccc4nc(C(C(=O)NCCS(N)(=O)=O)S(C)(=O)=O)sc4c3)cc2)o1 (stereo not shown) [Example B225, 2-methanesulfonyl-2-{6-[4-(5-methyl-1,3,4-oxadiazol-2-yl)phenyl]-1,3-benzothiazol-2-yl}-N-(2-sulfamoylethyl)a-cetamide] | 4.9 nM | 15.4 nM
NC(=O)c1ccc(-c2ccc3nc(C(C(=O)NCCS(N)(=O)=O)S(=O)(=O)CCC(F)(F)F)sc3c2)cc1 (stereo not shown) [Example B228, 4-(2-{[(2-sulfamoylethyl)car-bamoyl](3,3,3-trifluoro-propanesulfonyl)methyl}-1,3-benzothiazol-6-yl)ben-zamide] | 9.2 nM | 250 nM
CN(C)C(=O)c1ccc(-c2ccc3nc(C(C(=O)NCCS(N)(=O)=O)S(=O)(=O)Cc4ccc(OC(F)(F)F)cc4)sc3c2)cc1F (stereo not shown) [Example B229, 2-fluoro-N,N-dimethyl-4-(2-{[(2-sulfamoylethyl)car-bamoyl][4-(trifluoro-methoxy)phenyl]methane-sulfonylmethyl}-1,3-benzothiazol-6-yl)ben-zamide] | 29.2 nM | 242 nM
CN(C)C(=O)c1ccc(-c2ccc3nc(C(C(=O)NCCS(N)(=O)=O)S(=O)(=O)CCC(F)(F)F)sc3c2)cc1F (stereo not shown) [Example B230, 2-fluoro-N,N-dimethyl-4-(2-{[(2-sulfamoylethyl)car-bamoyl](3,3,3-trifluoro-propanesulfonyl)meth-yl}-1,3-benzothiazol-6-yl)benzamide] | 4.6 nM | 37.4 nM
COCCS(=O)(=O)C(C(=O)NCc1cc(C(C)C)no1)c1nc2ccc(-c3ccccc3)cc2s1 (stereo not shown) [Example B232, 2-(2-methoxyethane-sulfonyl)-2-(6-phenyl-1,3-benzothiazol-2-yl)-N-{[3-(propan-2-yl)-1,2-oxazol-5-yl]methyl}acetamide] | 45.9 nM | 0.8 nM
Cc1cc(CNC(=O)C(c2nc3ccc(-c4ccccc4)cc3s2)S(C)(=O)=O)on1 (stereo not shown) [Example B233] | 31.6 nM | 3.6 nM
Cn1nccc1-c1ccc2nc(C(C(=O)NCCS(N)(=O)=O)S(C)(=O)=O)sc2c1 (stereo not shown) [Example B235, 2-methanesulfonyl-2-[6-(1-methyl-1H-pyrazol-5-yl)-1,3-benzothiazol-2-yl]-N-(2-sulfamoylethyl)a-cetamide] | 5.1 nM | 3050 nM
NS(=O)(=O)CCNC(=O)C(c1nc2ccc(-c3ccc(S(=O)(=O)NCCO)cc3)cc2s1)S(=O)(=O)Cc1ccc(F)cc1 (stereo not shown) [Example B238, 2-[(4-fluorophenyl)methane-sulfonyl]-2-(6-{4-[(2-hydroxyethyl)sulfa-moyl]phenyl}-1,3-benzothiazol-2-yl)-N-(2-sulfamoylethyl)a-cetamide] | 9.8 nM | 234 nM
COCc1ccc(-c2ccc3nc(C(C(=O)NCCS(N)(=O)=O)S(=O)(=O)CCC(F)(F)F)sc3c2)cc1 (stereo not shown) [Example B239, 2-{6-[4-(methoxymeth-yl)phenyl]-1,3-benzothiazol-2-yl}-N-(2-sulfamoyl-ethyl)-2-(3,3,3-trifluoro-propanesulfonyl)acetamide] | 9.4 nM | 7.3 nM
NS(=O)(=O)CCNC(=O)C(c1nc2ccc(-c3ccc(CCO)cc3)cc2s1)S(=O)(=O)Cc1ccc(F)cc1 (stereo not shown) [Example B240, 2-[(4-fluorophenyl)methane-sulfonyl]-2-{6-[4-(2-hydroxyethyl)phenyl]-1,3-benzothiazol-2-yl}-N-(2-sulfamoylethyl)a-cetamide] | 25.7 nM | 76.6 nM
NS(=O)(=O)CCNC(=O)C(c1nc2ccc(-c3cccc(Cl)c3)cc2s1)S(=O)(=O)Cc1ccc(F)cc1 (stereo not shown) [Example B243, 2-[6-(3-chlorophenyl)-1,3-benzothiazol-2-yl]-2-[(4-fluorophenyl)methanesulfon-yl]-N-(2-sulfamoylethyl)a-cetamide] | 4.8 nM | 2.4 nM

Next, values leading:

IC50 [1] | IC50 [2] | SMILES
1.4 nM | 2.8 nM | CS(=O)(=O)C(C(=O)NCCS(N)(=O)=O)c1nc2ccc(-c3ccc(Cl)cc3)cc2s1 (stereo not shown) [Example B207, 2-[6-(4-chlorophenyl)-1,3-benzothiazol-2-yl]-2-methanesulfonyl-N-(2-sulfamoylethyl)acetamide]
0.8 nM | 0.8 nM | CS(=O)(=O)C(C(=O)NCCS(N)(=O)=O)c1nc2ccc(-c3cccc(Cl)c3)cc2s1 (stereo not shown) [Example B208, 2-[6-(3-chlorophenyl)-1,3-benzothiazol-2-yl]-2-methanesulfonyl-N-(2-sulfamoylethyl)acetamide]
8 nM | 13.9 nM | CS(=O)(=O)C(C(=O)NCCS(N)(=O)=O)c1nc2ccc(-c3cc(F)cc(Cl)c3)cc2s1 (stereo not shown) [Example B209, 2-[6-(3-chloro-5-fluorophenyl)-1,3-benzothiazol-2-yl]-2-methanesulfonyl-N-(2-sulfamoylethyl)acetamide]
4.4 nM | 3.6 nM | COCc1cccc(-c2ccc3nc(C(C(=O)NCCS(N)(=O)=O)S(C)(=O)=O)sc3c2)c1 (stereo not shown) [Example B215, 2-methanesulfonyl-2-{6-[3-(methoxymethyl)phen-yl]-1,3-benzothiazol-2-yl}-N-(2-sulfamoylethyl)a-cetamide]
2.3 nM | 3.6 nM | CC(C)Oc1ccc(-c2ccc3nc(C(C(=O)NCCS(N)(=O)=O)S(C)(=O)=O)sc3c2)cc1Cl (stereo not shown) [Example B217, 2-{6-[3-chloro-4-(propan-2-yloxy)phenyl]-1,3-benzothiazol-2-yl}-2-methanesulfonyl-N-(2-sulfamoylethyl)acetamide]
51.4 nM | 2.8 nM | CC(C)(C)OC(=O)n1ccc(-c2ccc3nc(C(C(=O)NCCS(N)(=O)=O)S(C)(=O)=O)sc3c2)c1 (stereo not shown) [Example B220, tert-butyl 3-(2-{methanesulfonyl[(2-sulfa-moylethyl)carbamoyl]meth-yl}-1,3-benzothiazol-6-yl)-1H-pyrrole-1-carboxylatc]
12.3 nM | 31.6 nM | CS(=O)(=O)C(C(=O)NCCS(N)(=O)=O)c1nc2ccc(-c3cncs3)cc2s1 (stereo not shown) [Example B222, 2-methanesulfonyl-N-(2-sulfamoylethyl)-2-[6-(1,3-thiazol-5-yl)-1,3-benzothiazol-2-yl]a-cetamide]
0.5 nM | 74 nM | NS(=O)(=O)CCNC(=O)C(c1nc2ccc(-c3ccc(C(=O)NC4CC4)cc3)cc2s1)S(=O)(=O)Cc1ccc(OC(F)(F)F)cc1 (stereo not shown) [Example B226, N-cyclopropyl-4-(2-{[(2-sulfamoylethyl)carbamoyl][4-(trifluoromethoxy)phen-yl]methanesulfonyl-methyl}-1,3-benzothiazol-6-yl)benzamide]
0.5 nM | 80.8 nM | NC(=O)c1ccc(-c2ccc3nc(C(C(=O)NCCS(N)(=O)=O)S(=O)(=O)Cc4ccc(OC(F)(F)F)cc4)sc3c2)cc1 (stereo not shown) [Example B227, 4-(2-{[(2-sulfamoylethyl)car-bamoyl][4-(trifluoromethoxy)phen-yl]methanesulfonyl-methyl}-1,3-benzothiazol-6-yl)benzamide]
4.9 nM | 0.5 nM | COCCS(=O)(=O)C(C(=O)NCc1cc(C)no1)c1nc2ccc(-c3ccccc3)cc2s1 (stereo not shown) [Example B234, 2-(2-methoxyethane-sulfonyl)-N-[(3-methyl-1,2-oxazol-5-yl)methyl]-2-(6-phenyl-1,3-benzothiazol-2-yl)a-cetamide]
0.8 nM | 55.3 nM | CC(=O)Nc1ccc(-c2ccc3nc(C(C(=O)NCCS(N)(=O)=O)S(=O)(=O)CCC(F)(F)F)sc3c2)cc1 (stereo not shown) [Example B236, 2-[6-(4-acetamidophenyl)-1,3-benzothiazol-2-yl]-N-(2-sulfamoylethyl)-2-(3,3,3-trifluoropropane-sulfonyl)acetamide]
6.4 nM | 607 nM | CC(C)(O)CNC(=O)c1ccc(-c2ccc3nc(C(C(=O)NCCS(N)(=O)=O)S(C)(=O)=O)sc3c2)cc1 (stereo not shown) [Example B241, N-(2-hydroxy-2-methyl-propyl)-4-(2-{methane-sulfonyl[(2-sulfamoyl-ethyl)carbamoyl]methyl}-1,3-benzothiazol-6-yl)ben-zamide]
2.7 nM | 109 nM | CC(C)(O)CNC(=O)c1ccc(-c2ccc3nc(C(C(=O)NCCS(N)(=O)=O)S(=O)(=O)Cc4ccc(F)cc4)sc3c2)cc1 (stereo not shown) [Example B242, 4-{2-[(4-fluorophenyl)meth-anesulfonyl[(2-sulfa-moylethyl)carbamoyl]meth-yl]-1,3-benzothiazol-6-yl}-N-(2-hydroxy-2-methylpropyl)benzamide]
